Measurements from ChEMBL document CHEMBL1158275, “Isolation of two new antiinflammatory biflavanoids from Sarcophyte piriei” (J Nat Prod, 1996).

What was measured:
[1] = Inhibition of prostaglandin synthesis in bovine seminal vesicle microsomes using [14C]arachidonic acid; assay type: functional, Bos taurus, Microsome
Neutrophil = assay: Inhibition of PAF-induced exocytosis in neutrophil by spectrophotometer; assay type: functional, cell-based

IC50 [1] [µg/mL]	IC50 ([1]; read-out: IC50) [µM]	IC50 (Neutrophil) [µM]	SMILES
–	9.2	49	O=C1C[C@H](c2ccc(O)c(O)c2)Oc2c1c(O)cc1c2[C@@H]2C[C@@](c3ccc(O)c(O)c3)(Oc3cc(O[C@@H]4O[C@H](CO)[C@@H](O)[C@H](O)[C@H]4O)cc(O)c32)O1 [DIINSININOL]
–	13.1	39	O=C1C[C@H](c2ccc(O)cc2)Oc2c1c(O)cc1c2[C@@H]2C[C@@](c3ccc(O)c(O)c3)(Oc3cc(O[C@@H]4O[C@H](CO)[C@@H](O)[C@H](O)[C@H]4O)cc(O)c32)O1 [DIINSININ]
–	–	80	C[C@@H]1C(=O)O[C@H]2[C@H](O)[C@@]34[C@H]5C[C@@H](C(C)(C)C)[C@]36[C@@H](OC(=O)[C@@H]6O)O[C@@]4(C(=O)O5)[C@@]12O [GINKOLIDE B]

Continued, compound first:

SMILES	IC50 [1] [µg/mL]	IC50 ([1]; read-out: IC50) [µM]	IC50 (Neutrophil) [µM]
CC(=O)Oc1ccccc1C(=O)O [ASPIRIN]	200	–	–
COc1ccc2c(c1)c(CC(=O)O)c(C)n2C(=O)c1ccc(Cl)cc1 [INDOMETHACIN]	–	0.56	–
